Legend:
h-FXIIa = target: T1, h-FXIIa (Homo sapiens, UniProt P00748); experiment: Stability of CTI, PTI and TICA at RT and at 95° C., read as inhibition of h-FXIIa; type: physicochemical; details: for Residual activity / Calculated total I / Activity of FXIIa / Free FXIIa: inhibitor exposed 60 minutes to 95° C.; for Calculated total I / Activity of FXIIa / Free FXIIa: added CTI 8.1 nM, TICA1 306 nM; for Activity of FXIIa / Free FXIIa: total FXIIa 9.33 nM
T1 construct: purchased Enzyme Research Laboratories FXIIa 1212A
T1 sequence (P00748 373-615 limits assumed): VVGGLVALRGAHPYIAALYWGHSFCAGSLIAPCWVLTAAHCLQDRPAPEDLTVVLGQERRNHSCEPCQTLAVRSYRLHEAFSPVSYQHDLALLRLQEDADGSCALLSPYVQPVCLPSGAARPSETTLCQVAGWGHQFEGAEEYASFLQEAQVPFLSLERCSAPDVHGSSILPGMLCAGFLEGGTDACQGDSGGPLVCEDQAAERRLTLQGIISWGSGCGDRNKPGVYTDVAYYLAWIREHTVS
T1 sequence (P00748 20-372 partner limits assumed): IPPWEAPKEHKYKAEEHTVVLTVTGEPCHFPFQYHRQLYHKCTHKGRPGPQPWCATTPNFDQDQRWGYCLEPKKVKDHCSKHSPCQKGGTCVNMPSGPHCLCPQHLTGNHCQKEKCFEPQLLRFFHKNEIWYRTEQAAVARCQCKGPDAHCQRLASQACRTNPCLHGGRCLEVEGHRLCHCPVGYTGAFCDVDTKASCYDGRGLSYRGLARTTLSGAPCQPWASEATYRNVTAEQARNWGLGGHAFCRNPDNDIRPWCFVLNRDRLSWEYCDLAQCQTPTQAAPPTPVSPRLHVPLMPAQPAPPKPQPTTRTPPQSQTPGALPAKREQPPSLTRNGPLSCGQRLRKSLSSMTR
Method: Materials • S2302 From Chromogenic, lot # N0398718 SEQ0860, exp. date 2012-07. Water added on 7 Oct. […] On 3 Aug. […] Product code FXIIa 1212A, lot #FXIIa 2520PL. Bottle with 0.5 mg was reconstituted with 370 μl pure water. […] Buffer 4 mM NaAc, 150 mM NaCl (pH 5.3). Preparation was divided into 20 μl amounts and frozen at −80° C. • Hepes735 140 mM NaCl, 20 mM Hepes, 0.02% NaN3 (pH 7.35). • BSA5 Hepes735+5 mg/ml BSA. • CTI Prepared on 17 Dec. 2004, 0.141 mg/ml, i.e. 0.141/12028=11.7*10^−6 M (11.7 μM). One portion was thawed and divided into 3 parts. […]
Stock FXIIa was diluted 700× in BSA5. The inhibitor was diluted in BSA5 as indicated. Wells contained 70 μl diluted FXIIa (5 nM final), 70 μl inhibitor and 20 μl S2302 (475 or 462.5 μM final). The reaction was started after 5 min heating on the heating plate with S2302. Filters 405 nm and 490 nm reference. Found ΔmA/min was multiplied by 2.14 to get the figure for a 1 cm path.
The residual activity (V) was fitted against the inhibitor concentration with equation:
V=(E+(sqrt(Ê2+2*E*(Ki−I)+Î2+2*I*Ki+Kî2)−E−I−Ki)/2)*kcat*S/(Km+S)
in which E=[FXIIa], Ki is the dissociation constant, I=[Inhibitor], kcat and Km are Michaelis constants and S=[S2302].
To calculate the concentration of I the equation I=x·(x−E−Ki)/(x−E) was used. In this equation is I the calculated inhibitor concentration, x=the residual activity of FXIIa (free FXIIa), E the total FXIIa concentration (=9.33 nM), and Ki the dissociation or inhibitor constant.

[1] = Retention of biological activity at room temperature and in boiling water; type: physicochemical; details: for biological activity after heating: 0.1 mM solution in closed ampoule in boiling water for 60 min
Method: (Example 7) This means that, unlike CTI, it can be added to citrate tubes that can be sterilized and used under clinical conditions. About 0.10 mg of TICA1 would be required per vacuum tube meant to take 10 ml of blood.

contact activation = experiment: Thrombin generation (CAT) in platelet poor plasma contact activated with kaolin; type: biochemical, human; details: for 4 × lag-time (ng/ml) / 4 × lag-time (μM): concentration that prolongs clotting time of kaolin contact activated plasma four times
Method: Thrombin generation was carried out according to WO2003/093831.
Following a double centrifugation at 2500×g for 15 min at room temperature, platelet poor plasma (PPP) was collected from the upper half volume of plasma supernatant, quick frozen and stored at −80° C. The absence of platelet and leucocyte in PPP was checked with an ADVIA 120 counter (Bayer Diagnostics, NY, USA).
Recombinant human tissue factor Innovin® was obtained from Dade Behring (Marburg, Germany) and used at a final concentration of 0.5 pM in PRP and 1 or 5 pM in PPP samples. The phospholipid vesicles used at a final concentration of […] were obtained from Avanti Polar Lipids (Alabaster, Ala., USA) and consisted of 20 mol % phosphatidylserine (PS), 20 mol % phosphatidylethanolamine (PE) and 60 mol % phosphatidylcholine (PC) and were prepared by extrusion method (9,10). Kaolin light (hydrated aluminium silicate) was obtained from Baker Harrison ltd, (Ilford, UK).
Hepes-buffered saline contained 20 mM Hepes (Sigma Aldrich, l'Ile d'Abeau Chesnes, France), 140 mM NaCl and 5 mg/mL bovine serum albumin (BSA) (Euromedex, Souffelweyersheim, France), pH 7.35. This buffer was stored at −20° C. until use. A fresh mixture of fluorogenic substrate and CaCl2 was prepared before each experiment. Fluorogenic substrate, Z-Gly-Gly-Arg-AMC, was obtained from Bachem (Bubendorf, Switzerland). The mixture of fluorogenic substrate 2.5 mM and CaCl2 0.1 M was prepared using buffer containing Hepes 20 mM and 60 mg/mL BSA, pH 7.35. The Calibrator with the activity of 600 nM human thrombin was obtained from Thrombinoscope BV (Maastricht, The Netherlands). Transparent, round bottom Greiner microtiter plates (Greiner ref 65204, Poitiers, France) were used.
Thrombin generation was measured using Calibrated Automated Thrombography (CAT) according to the methodology of WO2003/093831 and a 96-well plate fluorometer (Fluoroscan Ascent Reader, Thermolab systems OY, Helsinki, Finland) equipped with a 390/460 nm filter set. Briefly, 80 μL of plasma is dispensed into the wells of round-bottom 96 well-microtiter plates. 20 μL of a mixture containing tissue factor and phospholipids is added to the PPP sample; alternatively, in order to obtain contact activation, the citrated plasma is preincubated for at least 10 min with 1 mg/ml of Kaolin light. The starting reagent (20 μL per well) contains fluorogenic substrate and CaCl2. […] The most important parameters that can be derived from CAT are lag time, endogenous thrombin potential corresponding to the area under the CAT curve, peak height of thrombin and time to peak.

[2] = contact activation of PPP by kaolin
[3] = Kaolin, CTI 0.72 μM (8.64 μg/ml)

For `CC[C@H](C)[C@@H]1NC(=O)[C@H](CCCNC(=N)N)NC(=O)[C@@H]2CCCN2C(=O)[C@@H](NC(=O)[C@@H](NC(=O)[C@@H](N)CCCNC(=N)N)C(C)C)CSSC[C@@H]2NC(=O)[C@H](CCC(=O)O)NC(=O)[C@H](C)NC(=O)[C@H](CC(C)C)NC(=O)[C@@H]3CSSC[C@@H](C(=O)NCC(=O)O)NC(=O)[C@H](Cc4ccc(O)cc4)NC(=O)CNC(=O)[C@H](Cc4c[nH]cn4)NC(=O)[C@H](CCC(=O)O)NC(=O)[C@H](CC(C)C)NC(=O)[C@H](CSSC[C@H](NC(=O)[C@H](CCCCN)NC(=O)[C@H](CCSC)NC(=O)[C@H](CC(C)C)NC1=O)C(=O)N[C@@H](CCCCN)C(=O)N[C@@H](CCCCN)C(=O)N[C@@H](CC(=O)O)C(=O)N[C@@H](CO)C(=O)N[C@@H](CC(=O)O)C(=O)N3)NC(=O)[C@H](C(C)C)NC2=O` [TICA1], the Ki (h-FXIIa; (Ki) (nM), inhibitor 30 min 95° C., h-FXIIa 5.01 nM) was 24 nM, the “Res. Act. (%)” value (h-FXIIa; inhibitor 30 min 95° C.) was 94% and the “Res. Act. (%)” value (h-FXIIa; inhibitor at RT during 72 hrs) was 102%. The Residual activity (h-FXIIa) was 81.7%, the “Calculated total I” value (h-FXIIa) was 250 nM and the “Activity of FXIIa” value (h-FXIIa) was 33.5 ± 1.78 mA/min. For the same molecule, the “Free FXIIa” value (h-FXIIa) was 3.93 nM, the “Res. Act. (%)” value (h-FXIIa; inhibitor kept at −80° C.) was 100% and the “biological activity after heating” value [1] was “does not affect its biological activity”. For the same molecule, the “stability at room temperature” value ([1]; left for weeks at room temperature) was “without loosing activity”, the “effect on lag time of thrombin generation triggered by contact activation” value (contact activation; FIG. 1) was “prolong the lag time” and the “inhibition of contact activation of PPP” value (contact activation; PPP incubated with kaolin, 0.94 to 4.6 μM) was “dose-dependent inhibition”. The “4 × lag-time (ng/ml)” value (contact activation; After heating) was 7.5 ng/mL, the “4 × lag-time (μM)” value (contact activation; After heating) was 2.3 µM and the “4 × lag-time (ng/ml)” value (contact activation; Before heating) was 7.8 ng/mL. The “4 × lag-time (μM)” value (contact activation; Before heating) was 2.4 µM, the “potency compared with CTI on a molar basis” value (contact activation; [2]) was ~2.5 times less potent and the “potency compared with CTI on a weight basis” value (contact activation; [2]) was “equipotent”.

B1: Corn trypsin inhibitor (other, UniProt P01088 29-138, looked up)
chain: SAGTSCVPGWAIPHNPLPSCRWYVTSRTCGIGPRLPWPELKRRCCRELADIPAYCRCTALSILMDGAIPPGPDAQLEGRLEDLPGCPREVQRGFAATLVTEAECNLATIS
notes: also called CTI
In the case of B1, the Residual activity (h-FXIIa) is reported as 29.3%, the “Calculated total I” value (h-FXIIa) is reported as 2.37 nM and the “Activity of FXIIa” value (h-FXIIa) is reported as 66.3 ± 1.32 mA/min. For the same molecule, the “Free FXIIa” value (h-FXIIa) was 7.77 nM, the “biological activity after heating” value [1] was “significantly inactivated” and the ETP (contact activation; [3]) was 1116. For the same molecule, the Lag-time (contact activation; [3]) was 18.62, the Peak (contact activation; [3]) was 385 and the ttPeak (contact activation; [3]) was 20.06.

Source: patent US20140296146A1, “Thermostable Inhibitors of Activation of the Blood Clotting System Through Contact with Foreign Surfaces” (Synapse B.V., priority 2011, published 2014)
